Test results: patent US20180311217A1, “METHODS OF TREATMENT AND COMPOSITIONS WITH XANTHINE OXIDASE INHIBITORS” (Takeda Pharmaceuticals U.S.A., Inc., priority 2013, published 2018)
Marks after values point to notes of the source that are not given here.

What was measured:
[1] = oral administration; cited from earlier work
[2] = system: hyperuricemic gout subjects with moderate to severe renal impairment; assay: Example 1 randomized double-blind 12 month study: serum urate (sUA); assay type: in vivo, human
Excerpt: Randomization was stratified at baseline using 3 strata: subjects taking an angiotensin receptor blocker (ARB), subjects taking an angiotensin converting enzyme inhibitors (ACEi), or subjects not taking an ARB or an ACEi. […] Serum samples for the analysis of sUA were collected as part of the standard chemistry panel at the time points stipulated in Schedule of Study Procedures (Table 1). All samples were collected in accordance with standard laboratory procedures. Serum urate concentrations were determined using the enzymatic method as performed by the Central Laboratory and were blinded to the Sponsor and investigative site beginning at Day 1 through the Month 12/ET visits. Missing data in all efficacy analyses was imputed with the last available postbaseline observation carrying forward (LOCF). A subject was included in the analysis of a specific efficacy variable only when there was both a baseline value and at least 1 value during the double-blind treatment period. […] The percentage of subjects with sUA<6 mg/dL at Month 12 was summarized by treatment group, and the treatment groups were compared by a CMH test with prior use of an ARB or ACEi as a stratification variable. In addition, change from baseline and percent change from Baseline in sUA were summarized by visit and by treatment.

## Cc1nc(-c2ccc(OCC(C)C)c(C#N)c2)sc1C(=O)O [Febuxostat, 2-[3-cyano-4-(2-methylpropoxy)phenyl]-4-methylthiazole-5-carboxylic acid]
[1]
  orally administered febuxostat eliminated in the urine as unchanged drug: < 4%
[2]; 30 mg BID, Day 14
  Percentage of Subjects with sUA < 6.0 mg/dL: 71.9 (23/32) %
[2]; 30 mg BID, Month 1
  Percentage of Subjects with sUA < 6.0 mg/dL: 71.9 (23/32) %
[2]; 30 mg BID, Month 3
  Percentage of Subjects with sUA < 6.0 mg/dL: 78.1 (25/32) %
[2]; 30 mg BID, Month 6
  Percentage of Subjects with sUA < 6.0 mg/dL: 65.6 (21/32)* %
  Serum urate change from Baseline, LS mean (SE): −5.08 (0.304) mg/dL
  Serum urate change from Baseline, LS mean difference (SE) from placebo group: −5.15 (0.428) mg/dL
[2]; 30 mg BID, Month 9
  Percentage of Subjects with sUA < 6.0 mg/dL: 68.8 (22/32) %
[2]; 30 mg BID, Month 12
  Percentage of Subjects with sUA < 6.0 mg/dL: 68.8 (22/32)* %
  Serum urate change from Baseline, LS mean (SE): −4.97 (0.318) mg/dL
  Serum urate change from Baseline, LS mean difference (SE) from placebo group: −4.82 (0.447) mg/dL
[2]; 30 mg BID, Month 12, listed as febuxostat
  Serum urate change from Baseline, LS mean (SE): -4.97 mg/dL
[2]; 40/80 mg QD, Day 14
  Percentage of Subjects with sUA < 6.0 mg/dL: 33.3 (10/30) %
[2]; 40/80 mg QD, Month 1
  Percentage of Subjects with sUA < 6.0 mg/dL: 35.5 (11/31) %
[2]; 40/80 mg QD, Month 3
  Percentage of Subjects with sUA < 6.0 mg/dL: 58.1 (18/31) %
[2]; 40/80 mg QD, Month 6
  Percentage of Subjects with sUA < 6.0 mg/dL: 51.6 (16/31)* %
  Serum urate change from Baseline, LS mean (SE): −4.29 (0.309) mg/dL
  Serum urate change from Baseline, LS mean difference (SE) from placebo group: −4.36 (0.431) mg/dL
[2]; 40/80 mg QD, Month 9
  Percentage of Subjects with sUA < 6.0 mg/dL: 58.1 (18/31) %
[2]; 40/80 mg QD, Month 12
  Percentage of Subjects with sUA < 6.0 mg/dL: 45.2 (14/31)* %
  Serum urate change from Baseline, LS mean (SE): −4.17 (0.323) mg/dL
  Serum urate change from Baseline, LS mean difference (SE) from placebo group: −4.02 (0.451) mg/dL
[2]; 40/80 mg QD, Month 12, listed as febuxostat
  Serum urate change from Baseline, LS mean (SE): -4.17 mg/dL
